≈ marks a conversion by molar mass, not a printed value. Like-named read-outs stand apart in the source and are kept apart here. One block for each compound: values may come before it.
Legend:
[1] = Activated sludge simulating microcosms (degradation of FL, formation of NFL); format: physicochemical
Procedure: Activated sludge microcosm experiments were conducted in the dark and aerobic conditions. Three microcosm bioreactors were investigated in duplicate. They were filled with 2 L of fresh activated sludge collected from a local wastewater treatment plant. […] Dark conditions were simulated by covering up the flask with foil. Aerobic conditions were obtained using air from BOC air cylinder and a thorough mixing was maintained using magnetic stirrers. The experiment was 24 hours long. […] Collected samples were subsequently frozen until their analysis to prevent degradation of compounds.
The compounds studied are characterized as having low volatility and therefore volatilization was not considered as a potential removal pathway in studied microcosms. Photodegradation was also not considered (not relevant) under tested activated sludge conditions. Therefore the two important degradation mechanisms to consider were biodegradation and sorption to sludge. […] However, in this study, sorption equilibrium was assumed and therefore sorption could be considered negligible. This is because sorption is assumed to be fast when compared to biological degradation.
Several reports utilized pseudo-first-order kinetics for degradation of micropollutants in activated sludge reactors[48]–[50]. […] Pseudo-first order biodegradation rate k1 [L g^−1h^−1]

[2] = River water simulating microcosms (degradation of FL)
[3] = test system: Tetrahymena thermophila; assay: microbe, parasite or virus in culture; format: cell-based; settings: for EC50: Tetrahymena thermophila
Procedure: The tests were performed in accordance with the protocols provided by the manufacturer. […] The tests were carried out in disposable spectrophotometric cells of 1 cm path-length, to enable the measurement of the optical density (OD) at 440 nm. […] This change in OD over the time period is used to quantify the degree of inhibition and subsequent calculation of the EC50. Each concentration was repeated in duplicate.

[4] = test system: Daphnia magna; assay: Daphnia magna acute 48 h immobilization assay (Daphtoxkit); format: in vivo; settings: for Average effect (N immobile, 5 daphnids per replicate): 48 h;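 for Average effect (N immobile, 5 daphnids per replicate): test concentrations in mg per L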
Procedure: Six concentration levels (5 concentrations plus control, four replicate beakers for each concentrations, five individual for each beaker) were tested. […] Each experiment was repeated in triplicate.

[5] = after FL; ref [3]; cited from earlier work

EF ([1]; 10 µg L-1 microcosm, time 0): 0.784
EF ([1]; 10 µg L-1 microcosm, time 0.5): 0.663
EF ([1]; 10 µg L-1 microcosm, time 1): 0.000
EF ([1]; 10 µg L-1 microcosm, time 1.5): 0.887
EF ([1]; 10 µg L-1 microcosm, time 2): 0.750
EF ([1]; 10 µg L-1 microcosm, time 3): 0.839
EF ([1]; 10 µg L-1 microcosm, time 5): 0.810
EF ([1]; 10 µg L-1 microcosm, time 8): 0.856
EF ([1]; 10 µg L-1 microcosm, time 12): 0.749
EF ([1]; 10 µg L-1 microcosm, time 24): 0.752
enantiomeric fraction (EF) ([1]; 10 µg L^−1 reactor, after further slow removal): > 0.7
EF ([1]; 100 µg L-1 microcosm, time 0): 0.833
EF ([1]; 100 µg L-1 microcosm, time 0.5): 0.826
EF ([1]; 100 µg L-1 microcosm, time 1): 0.858
EF ([1]; 100 µg L-1 microcosm, time 1.5): 0.872
EF ([1]; 100 µg L-1 microcosm, time 2): 0.848
EF ([1]; 100 µg L-1 microcosm, time 3): 0.852
EF ([1]; 100 µg L-1 microcosm, time 5): 0.851
EF ([1]; 100 µg L-1 microcosm, time 8): 0.843
EF ([1]; 100 µg L-1 microcosm, time 12): 0.864
EF ([1]; 100 µg L-1 microcosm, time 24): 0.794
enantiomeric fraction (EF) ([1]; 100 µg L^−1 microcosm): > 0.7
EF ([2]; DAR (dark abiotic), day 5): 0.000
EF ([2]; DBR (dark biotic), day 1): 0.000
EF ([2]; DBR (dark biotic), day 3): 0.333
EF ([2]; DBR (dark biotic), day 5): 0.417
EF ([2]; LAR (light abiotic), day 2): 0.000
EF ([2]; LAR (light abiotic), day 3): 0.358
EF ([2]; LAR (light abiotic), day 4): 0.250
EF ([2]; LAR (light abiotic), day 5): 0.000
EF ([2]; LAR (light abiotic), day 8): 0.000
EF ([2]; LAR (light abiotic), day 9): 0.000
EF ([2]; LAR (light abiotic), day 10): 0.000
EF ([2]; LAR (light abiotic), day 11): 0.000
EF ([2]; LAR (light abiotic), day 12): 0.225
EF ([2]; LAR (light abiotic), day 15): 0.000
EF ([2]; LAR (light abiotic), day 16): 0.225
EF ([2]; LBR (light biotic), day 1): 0.000
EF ([2]; LBR (light biotic), day 2): 0.000
EF ([2]; LBR (light biotic), day 3): 0.292
EF ([2]; LBR (light biotic), day 5): 0.292
SMILES: NCCC(Oc1ccc(C(F)(F)F)cc1)c1ccccc1 (stereo not drawn) [NFL, norfluoxetine]

Concentration ([1]; 10 µg L-1 microcosm, time 0): 0.035 ± 0.009 µg/L
Concentration ([1]; 10 µg L-1 microcosm, time 0.5): 0.029 ± 0.001 µg/L
Concentration ([1]; 10 µg L-1 microcosm, time 1): 0.077 ± 0.004 µg/L
Concentration ([1]; 10 µg L-1 microcosm, time 1.5): 0.012 ± 0.013 µg/L
Concentration ([1]; 10 µg L-1 microcosm, time 2): 0.050 ± 0.011 µg/L
Concentration ([1]; 10 µg L-1 microcosm, time 3): 0.043 ± 0.022 µg/L
Concentration ([1]; 10 µg L-1 microcosm, time 5): 0.070 ± 0.016 µg/L
Concentration ([1]; 10 µg L-1 microcosm, time 8): 0.055 ± 0.019 µg/L
Concentration ([1]; 10 µg L-1 microcosm, time 12): 0.126 ± 0.035 µg/L
Concentration ([1]; 10 µg L-1 microcosm, time 24): 0.182 ± 0.000 µg/L
Concentration ([1]; 100 µg L-1 microcosm, time 0): 0.109 ± 0.023 µg/L
Concentration ([1]; 100 µg L-1 microcosm, time 0.5): 0.132 ± 0.015 µg/L
Concentration ([1]; 100 µg L-1 microcosm, time 1): 0.128 ± 0.038 µg/L
Concentration ([1]; 100 µg L-1 microcosm, time 1.5): 0.146 ± 0.039 µg/L
Concentration ([1]; 100 µg L-1 microcosm, time 2): 0.428 ± 0.019 µg/L
Concentration ([1]; 100 µg L-1 microcosm, time 3): 0.429 ± 0.164 µg/L
Concentration ([1]; 100 µg L-1 microcosm, time 5): 0.616 ± 0.227 µg/L
Concentration ([1]; 100 µg L-1 microcosm, time 8): 0.710 ± 0.193 µg/L
Concentration ([1]; 100 µg L-1 microcosm, time 12): 0.859 ± 0.069 µg/L
Concentration ([1]; 100 µg L-1 microcosm, time 24): 1.302 ± 0.066 µg/L
Concentration ([2]; DAR (dark abiotic), day 5): 2 ± 0 pg/mL
Concentration ([2]; DBR (dark biotic), day 1): 2 ± 1 pg/mL
Concentration ([2]; DBR (dark biotic), day 3): 2 ± 1 pg/mL
Concentration ([2]; DBR (dark biotic), day 5): 2 ± 1 pg/mL
Concentration ([2]; LAR (light abiotic), day 2): 1 ± 0 pg/mL
Concentration ([2]; LAR (light abiotic), day 3): 4 ± 1 pg/mL
Concentration ([2]; LAR (light abiotic), day 4): 3 ± 0 pg/mL
Concentration ([2]; LAR (light abiotic), day 5): 2 ± 1 pg/mL
Concentration ([2]; LAR (light abiotic), day 8): 1 ± 1 pg/mL
Concentration ([2]; LAR (light abiotic), day 9): 2 ± 1 pg/mL
Concentration ([2]; LAR (light abiotic), day 10): 2 ± 0 pg/mL
Concentration ([2]; LAR (light abiotic), day 11): 3 ± 0 pg/mL
Concentration ([2]; LAR (light abiotic), day 12): 3 ± 1 pg/mL
Concentration ([2]; LAR (light abiotic), day 15): 2 ± 1 pg/mL
Concentration ([2]; LAR (light abiotic), day 16): 4 ± 1 pg/mL
Concentration ([2]; LBR (light biotic), day 1): 1 ± 0 pg/mL
Concentration ([2]; LBR (light biotic), day 2): 2 ± 0 pg/mL
Concentration ([2]; LBR (light biotic), day 3): 2 ± 1 pg/mL
Concentration ([2]; LBR (light biotic), day 5): 3 ± 1 pg/mL
SMILES: NCC[C@@H](Oc1ccc(C(F)(F)F)cc1)c1ccccc1 [(R)-NFL, (R)-3-phenyl-3-[4-(trifluoromethyl)phenoxy]-1-propanamine]
EC50 ([3]; T. thermophila, this study, read-out: EC50_24h -growth): 5.8 µg/mL (≈ 19.6 µM)
EC50 ([3]; definitive test, read-out: 24hEC50): 5.84 µg/mL (≈ 19.8 µM)
EC50 ([3]; range test, read-out: 24hEC50): 0.418 µg/mL (≈ 1.42 µM)
% I (percentage inhibition) ([3]; definitive test, conc. 0.220): -4.385%
% I (percentage inhibition) ([3]; definitive test, conc. 0.661): -11.658%
% I (percentage inhibition) ([3]; definitive test, conc. 22.017): 92.941%
% I (percentage inhibition) ([3]; definitive test, conc. 35.941): 94.118%
% I (percentage inhibition) ([3]; definitive test, conc. 57.505): 94.332%
% I (percentage inhibition) ([3]; definitive test, conc. 118.604): 103.743%
% I (percentage inhibition) ([3]; definitive test, conc. 179.703): 104.492%
% I (percentage inhibition) ([3]; range test, conc. 0.005): 10.591%
% I (percentage inhibition) ([3]; range test, conc. 0.050): -7.266%
% I (percentage inhibition) ([3]; range test, conc. 0.500): 50.369%
% I (percentage inhibition) ([3]; range test, conc. 5.000): 101.108%
% I (percentage inhibition) ([3]; range test, conc. 50.000): 106.897%
Average effect (N immobile, 5 daphnids per replicate) ([4]; concentration 0.5): 0.25
Average effect (N immobile, 5 daphnids per replicate) ([4]; concentration 1.5): 0.5
Average effect (N immobile, 5 daphnids per replicate) ([4]; concentration 5): 4.25
Average effect (N immobile, 5 daphnids per replicate) ([4]; concentration 16): 5
Average effect (N immobile, 5 daphnids per replicate) ([4]; concentration 50): 5
EC50 ([4]; Daphnia magna, D. magna, this study, read-out: EC50_48h -immobilization): 2.9 µg/mL (≈ 9.82 µM)

SMILES: O=C(O)CNC(=O)c1ccccc1 [hippuric acid]
excreted in the urine as this species [5]: > 20%
